Assay results from US20250090626A1, “NEW PEPTIDE AND USES THEREOF” (Neo Cremar Co., Ltd., priority 2021, published 2025).
No end group written: not given here.

How the values were obtained:
C2C12 cells = assay: Myodifferentiation, Giemsa staining, root canal formation and fusion index; format: cell-based, mouse; details: 3 days
Method: When C2C12 cells were 70% grown, media were replaced with myodifferentiation medium added with MSTN protein (1 ng), Ac-MIF1 (1000 nM), and Ac-MIF1 (1000 nM)+MSTN protein (1 ng) from proliferation medium, followed by culture for 3 days.
When the cells grew more than 70% for differentiation of myoblasts into myocytes, they were cultured for 3 days by replacing with a differentiation medium (DMEM+2% FBS+1% P/S). The medium was replaced once daily, and the cells were cultured at 37° C.
The cell medium was removed, and the cells were washed with PBS. After washing, a methanol:PBS reagent in a 1:1 volume ratio was treated, followed by fixation for 2 minutes. Additionally, after a methanol:PBS reagent in a 2:1 volume ratio was added, fixation was followed for additional 2 minutes. After 2 minutes, 0.04% Giemsa reagent was added, and then the cells were left for 30 minutes, washed with PBS after 30 minutes, and observed under a microscope, with 3 photographs taken for each cell (300×). In the photographs taken, the number of fused nuclei in the root canal cells was counted, the number of nuclei of total cells was counted, and the number of fused nuclei was divided by the number of nuclei of the total cells to obtain the % value.

C57BL/6 mice = assay: Myoregeneration effect upon injection of Ac-MIF1 peptide in cardiotoxin-damaged gastrocnemius; format: in vivo, mouse
Source text: The male C57BL/6 mice were purchased from Dae Han Bio Link Co., Ltd., four of which per cage were kept in a temperature-controlled room with a 12-hour light cycle. The animals were fed with a standard rodent diet containing 4.0% (wt/wt) total fat (Rodent NIH-31 Open Formula Auto; Zeigler Bros., Inc., Gardners, PA, USA) and water. All experiments involving animals complied with the guidelines (YUMC-AEC2015-006) issued by the Animal Control Committee of Youngnam University's Animal Research Institute. The MSTN knock-out mouse was provided by a laboratory at Seoul National University. Normal, MSTN+/− (heterozygous), and MSTN−/− (homozygous) adipose tissues were fixed by collecting from 6-week-old mice and stored at −80° C. until required for analysis.
Muscle tissues containing paraffin was subjected to deparaffinization with xylene and ethanol and hydration, respectively, and the tissue was soaked in 0.3% hydrogen peroxide water (H2O2)/methanol for 15 minutes to stop endogenous peroxidase activity. Then, tissues were stained with hematoxylin/eosin for morphological observation or reacted with 1% normal goat serum at room temperature for 1 hour to block a reaction with non-specific antibodies, followed by a reaction with the primary antibody (1:50) at 4° C. for over 16 hours. After 16 hours, washing was performed 3 times with PBS, followed by a reaction with secondary antibody (1:100) with HRP conjugated at room temperature for 1 hour. Horse radish peroxidase-conjugated streptavidin was added to detect the expression of the protein, followed by observation under a microscope.
In order to observe the myoregeneration effect following MIF peptide injection, mice were injected with Ac-MIF 1 peptide and injected/uninjected with cardiotoxin (hereinafter referred to as CTX) into the muscle, followed by observation of the morphology and regeneration of the muscle. A day after C57BL/6 mice were injected with Ac-MIF1 peptide (1.125 mM), […] cardiotoxin was injected into the gastrocnemius. Muscle tissues were sampled 7 days after CTX injection.
Paraffin-embedded muscle sections were deparaffinized using xylene, rehydrated using a concentration gradient of ethanol, stained with hematoxylin and eosin, observed under an optical microscope, magnified at 400× scale, and photographed, followed by measurement of the diameter of muscle fibers using Image J software.

3T3L1 cells = assay: Expression of FMOD, MSTN and lipogenesis-related mRNAs and proteins in 3T3L1 cells; format: cell-based, mouse; details: 3T3L1, Ac-MIF1 treated vs untreated; FIG. 13C
Method: After adding 1 ml of TRIzol™ reagent, the cells were crushed using a sonicator. After centrifugation of the crushed sample (12,000 rpm, 10 min, 4° C.), the supernatant was transferred to a new tube, added with 200 μl of chloroform, and left at room temperature for 10 minutes. After 10 minutes, centrifugation (12,000 rpm, 10 min, 4° C.) was performed, yielded a transparent supernatant. Next, 500 μl of isopropanol was added, the mixture was left for 10 minutes, and centrifugation was performed to obtain RNA pellets. After washing by adding 70% ethanol (distilled water treated with ethanol+diethylpyrocarbonate (hereinafter referred to as DEPC)) to the RNA pellets, complete removal and drying were followed. The dried transparent RNA was added with DEPC-treated distilled water and then stored at −80° C. Total RNA volume was measured by nanodrop, and the 18s and 28s bands were detected in 1.2% agarose gel. cDNA was synthesized with 2 μg of total RNA, random hexamer primers, and reverse transcriptase (25° C.: 10 min, 37° C.: 120 min, 85° C.: 5 min).
Real-time PCR (RT-PCR) was performed for detecting gene expression. For observation of real-time gene expression, gene expression was analyzed using the Power SYBR Green PCR Master Mix, which includes fluorescent materials of SYBR green (7500 Real-time PCR system). The PCR primer was designed with Primer 3 software (http://frodo.wi.mit.edu) according to the nucleotide sequence secured from NCBI GenBank. PCR was performed 40 times at 95° C. for 10 minutes, again at 95° C. for 33 seconds, at gene primer temperature (tm) for 33 seconds, and at 72° C. for 33 seconds. Gene expression values were analyzed through the analysis of c(t) values obtained through real-time PCR analysis (fold change 2-^ΔΔCt formula). Setting the gene expression value of the untreated cells to 1, the gene expression value of the treated cells was calculated. In the analysis of gene c(t) values, normalization was conducted with the glyceraldehyde-3-phosphate dehydrogenase (GAPDH).
(2) The medium of cultured 3T3L1 cells was removed and washed with PBS. After adding LIPA buffer and protease inhibitor to the washed cells, the proteins included in the supernatant were collected after centrifugation at 12000 rpm for 10 minutes. 40 μg of the extracted proteins were subjected to electrophoresis in 8 to 10% acrylamide gel and then transferred to a polyvinylidene fluoride (PVDF) membrane (Milipore). These were blocked with 3% skim milk or bovine serum albumin (BSA) at room temperature for 1 hour. Afterwards, primary antibody diluted in 1% skim milk or BSA (MSTN; 1:1000, 13-actin; 1:1000, CD36; 1:500, CD163; 1:500, FMOD; 1:400, and PPARγ; 1:500) was added and reacted at 4° C. for over 16 hours. After 16 hours, they were washed three times with TBST (Tris-buffered saline with Tween 20) and reacted with secondary antibody conjugated with horseradish peroxidase (HRP) at room temperature for 1 hour. It was washed three times with TBST and developed after adding Super Signal West Pico Chemiluminescent Substrate.

[1] = muscle injected with Ac-MIF1 peptide, 7 days after CTX, FIG. 10A
[2] = muscle injected with Ac-MIF1 peptide, 7 days after CTX, FIG. 10B

Ac-VDFEAFWDWG [Ac-MIF1, MIF1 with N-terminus acetylated, 10 mer]
fusion index, increase compared to untreated cells (C2C12 cells; C2C12, differentiation medium including peptide): 11% | root canal formation compared to untreated cells (C2C12 cells; C2C12, differentiation medium): increased | fusion index compared to untreated cells (C2C12 cells; C2C12, muscle differentiation medium, Ac-MIF1 1000 nM, FIG. 9): increased | muscle weight compared to muscle without injection (C57BL/6 mice; 7 days after CTX injection): no significant difference | muscle weight (C57BL/6 mice; CTX + Ac-MIF 1, gastrocnemius, 7 days after CTX injection): 0.140 ± 0.003 g | MSTN mRNA expression in muscle (C57BL/6 mice; [1]): increased | MYL2 mRNA expression in muscle (C57BL/6 mice; [1]): increased | MYOD mRNA expression in muscle (C57BL/6 mice; [1]): increased | MYL2 protein expression in muscle (C57BL/6 mice; [2]): increased | MYOD protein expression in muscle (C57BL/6 mice; [2]): increased | MYOG protein expression in muscle (C57BL/6 mice; [2]): increased | Pax7 protein expression in muscle (C57BL/6 mice; [2]): increased | diameter of the muscle fibers compared to without peptide injection (C57BL/6 mice; muscle injected with Ac-MIF1 peptide, 7 days after CTX, FIG. 10C): increased | CD36 expression (mRNA and protein) (3T3L1 cells): decreased | CD163 expression (mRNA and protein) (3T3L1 cells): decreased | FMOD expression (mRNA and protein) (3T3L1 cells): decreased | MSTN expression (mRNA and protein) (3T3L1 cells): decreased | PPARγ expression (mRNA and protein) (3T3L1 cells): decreased
